Test results as given in the supplement of paper PMC10307832.

Key:
Experiment in all cases: relative viability (nuclei count vs DMSO), 5 days (fraction); higher = more cells survive
Adavosertib + Lapatinib = compound: C=CCn1c(=O)c2cnc(Nc3ccc(N4CCN(C)CC4)cc3)nc2n1-c1cccc(C(C)(C)O)n1 [Adavosertib] + CS(=O)(=O)CCNCc1ccc(-c2ccc3ncnc(Nc4ccc(OCc5cccc(F)c5)c(Cl)c4)c3c2)o1 [Lapatinib] (partner 2 µM)
Procedure, shortened: (§1)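 Five library-drug doses in √10 steps were combined with a fixed anchor-drug dose, or a single drug was given alone, by pin tool to lung cancer cell lines in 1536-well plates the day after seeding. Nuclei were stained and counted after 5 days. Relative viability is the nuclei count in treated wells over that in vehicle wells, taken as the median of duplicate plates.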

Nelarabine + Alpelisib = compound: COc1nc(N)nc2c1ncn2[C@@H]1O[C@H](CO)[C@@H](O)[C@@H]1O [Nelarabine] + Cc1nc(NC(=O)N2CCC[C@H]2C(N)=O)sc1-c1ccnc(C(C)(C)C(F)(F)F)c1 [Alpelisib] (partner 2 µM)
Procedure, shortened: as §1

Nelarabine + Tozasertib = compound: COc1nc(N)nc2c1ncn2[C@@H]1O[C@H](CO)[C@@H](O)[C@@H]1O [Nelarabine] + Cc1cc(Nc2cc(N3CCN(C)CC3)nc(Sc3ccc(NC(=O)C4CC4)cc3)n2)n[nH]1 [Tozasertib] (partner 0.1 µM)
Procedure, shortened: as §1

Nelarabine + Olaparib = compound: COc1nc(N)nc2c1ncn2[C@@H]1O[C@H](CO)[C@@H](O)[C@@H]1O [Nelarabine] + O=C(c1cc(Cc2n[nH]c(=O)c3ccccc23)ccc1F)N1CCN(C(=O)C2CC2)CC1 [Olaparib] (partner 8 µM)
Procedure, shortened: as §1

Cell Line	relative viability (Adavosertib + Lapatinib; first compound 0.01 µM)	relative viability (Adavosertib + Lapatinib; first compound 0.03162 µM)	relative viability (Adavosertib + Lapatinib; first compound 0.1 µM)	relative viability (Adavosertib + Lapatinib; first compound 0.3162 µM)	relative viability (Nelarabine + Alpelisib; first compound 0.01 µM)	relative viability (Nelarabine + Alpelisib; first compound 0.03162 µM)	relative viability (Nelarabine + Alpelisib; first compound 0.1 µM)	relative viability (Nelarabine + Alpelisib; first compound 0.3162 µM)	relative viability (Nelarabine + Alpelisib; first compound 1 µM)	relative viability (Nelarabine + Tozasertib; first compound 0.01 µM)	relative viability (Nelarabine + Tozasertib; first compound 0.03162 µM)	relative viability (Nelarabine + Tozasertib; first compound 0.1 µM)	relative viability (Nelarabine + Tozasertib; first compound 0.3162 µM)	relative viability (Nelarabine + Tozasertib; first compound 1 µM)	relative viability (Nelarabine + Olaparib; first compound 0.01 µM)	relative viability (Nelarabine + Olaparib; first compound 0.03162 µM)	relative viability (Nelarabine + Olaparib; first compound 0.1 µM)	relative viability (Nelarabine + Olaparib; first compound 0.3162 µM)	relative viability (Nelarabine + Olaparib; first compound 1 µM)
NCI-H460	1.11	0.978	1.04	0.83	1.03	0.411	0.565	0.66	0.371	0.834	0.253	0.38	0.77	0.442	0.748	0.581	0.479	0.552	0.521
HCC-78	0.509	0.972	0.782	0.868	0.349	0.336		0.349	0.4	0.492	0.415		0.384	0.401	1.01	0.857		0.914	0.87
SK-LU-1	0.857	0.834	0.787	0.281	1.36	0.608	0.87	1.22	1	0.307	0.198	0.298	0.323	0.332	0.524	0.314	0.5	0.505	0.397
NCI-H2170	0.273	0.27	0.277	0.287	0.944	0.748	0.81	0.882	0.937	0.81	0.689	0.767	0.88	0.73	0.708	0.561	0.61	0.577	0.547
HOP-62	1.14	1.23	1.04	1.11	1.12	1.03	0.942	0.926	1.07	0.434	0.305	0.42	0.364	0.402	0.479	0.315	0.283	0.368	0.458
NCI-H2228	1.39	1.13	1.46	0.494	0.882	0.595		0.815	0.676	0.226	0.163		0.245	0.214	0.664	0.574	0.322	0.826	0.447
